# Laboratory results from PubChem BioAssay (NCI).
#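 Exposure lasted 48 hours, with cells grown in 96-well plates and compounds tested at five concentrations. The concentration for 50% growth inhibition is given as GI50. TGI denotes the concentration required for complete inhibition of growth.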
# Key:
# Test in all cases: DTP human tumour cell line panel, 48 h
# [1] = system: 786-0 renal
# [2] = system: A498 renal
# [3] = system: A549 NSCLC
# [4] = system: ACHN renal
# [5] = system: BT-549 breast
# [6] = system: CAKI-1 renal
# [7] = system: CCRF-CEM leukemia
# [8] = system: COLO 205 colon
# [9] = system: DU-145 prostate
# [10] = system: EKVX NSCLC
# [11] = system: HCC-2998 colon
# [12] = system: HCT-116 colon
# [13] = system: HCT-15 colon
# [14] = system: HL-60(TB) leukemia
# [15] = system: HOP-62 NSCLC
# [16] = system: HOP-92 NSCLC
# [17] = system: HS 578T breast
# [18] = system: HT29 colon
# [19] = system: IGROV1 ovarian
# [20] = system: K-562 leukemia
# [21] = system: KM12 colon
# [22] = system: LOX IMVI melanoma
# [23] = system: M14 melanoma
# [24] = system: MALME-3M melanoma
# [25] = system: MCF7 breast
# [26] = system: MDA-MB-231 breast
# [27] = system: MDA-MB-435
# [28] = system: MOLT-4 leukemia
# [29] = system: NCI-H226 lung
# [30] = system: NCI-H23 lung
# [31] = system: NCI-H460 lung
# [32] = system: NCI-H522 lung
# [33] = system: NCI/ADR-RES ovarian
# [34] = system: OVCAR-3 ovarian
# [35] = system: OVCAR-4 ovarian
# [36] = system: OVCAR-5 ovarian
# [37] = system: OVCAR-8 ovarian
# [38] = system: PC-3 prostate
# [39] = system: RPMI-8226 leukemia
# [40] = system: SF-268 CNS
# [41] = system: SF-295 CNS
# [42] = system: SF-539 CNS
# [43] = system: SK-MEL-2 melanoma
# [44] = system: SK-MEL-28 melanoma
# [45] = system: SK-MEL-5 melanoma
# [46] = system: SK-OV-3 ovarian
# [47] = system: SN12C renal
# [48] = system: SNB-19 CNS
# [49] = system: SNB-75 CNS
# [50] = system: SR leukemia
# [51] = system: SW-620 colon
# [52] = system: T-47D breast
# [53] = system: TK-10 renal
# [54] = system: U251 CNS
# [55] = system: UACC-257 melanoma
# [56] = system: UACC-62 melanoma
# [57] = system: UO-31 renal
smiles,measurement,setting,value
COc1cc(O)c2c3c(ccnc13)-c1ccccc1N2,GI50,[1],12.3 µM
same,TGI,[1],> 100 µM
same,GI50,[2],22.4 µM
same,TGI,[2],42.2 µM
same,GI50,[3],2.37 µM
same,TGI,[3],> 100 µM
same,GI50,[4],3.02 µM
same,TGI,[4],77.9 µM
same,GI50,[5],15.4 µM
same,TGI,[5],60.2 µM
same,GI50,[6],12.8 µM
same,TGI,[6],47.4 µM
same,GI50,[7],7.36 µM
same,TGI,[7],> 100 µM
same,GI50,[8],6.23 µM
same,TGI,[8],> 100 µM
same,GI50,[9],2.77 µM
same,TGI,[9],35.7 µM
same,GI50,[10],14.9 µM
same,TGI,[10],51.3 µM
same,GI50,[11],4.39 µM
same,TGI,[11],12.3 µM
same,GI50,[12],2.4 µM
same,TGI,[12],> 100 µM
same,GI50,[13],2.35 µM
same,TGI,[13],29.1 µM
same,GI50,[14],21.8 µM
same,TGI,[14],> 100 µM
same,GI50,[15],10.4 µM
same,TGI,[15],> 100 µM
same,GI50,[16],24.7 µM
same,TGI,[16],> 100 µM
same,GI50,[17],15.5 µM
same,TGI,[17],92.8 µM
same,GI50,[18],5.11 µM
same,TGI,[18],> 100 µM
same,GI50,[19],10.8 µM
same,TGI,[19],> 100 µM
same,GI50,[20],28.1 µM
same,TGI,[20],> 100 µM
same,GI50,[21],5.06 µM
same,TGI,[21],64.5 µM
same,GI50,[22],3.2 µM
same,TGI,[22],31.7 µM
same,GI50,[23],1.69 µM
same,TGI,[23],7.95 µM
same,GI50,[24],14.9 µM
same,TGI,[24],46.5 µM
same,GI50,[25],2.01 µM
same,TGI,[25],8.59 µM
same,GI50,[26],5.19 µM
same,TGI,[26],71.9 µM
same,GI50,[27],1.9 µM
same,TGI,[27],3.66 µM
same,GI50,[28],21.2 µM
same,TGI,[28],> 100 µM
same,GI50,[29],18.6 µM
same,TGI,[29],91.9 µM
same,GI50,[30],20.5 µM
same,TGI,[30],> 100 µM
same,GI50,[31],2.69 µM
same,TGI,[31],> 100 µM
same,GI50,[32],9.34 µM
same,TGI,[32],60 µM
same,GI50,[33],9.25 µM
same,TGI,[33],92.7 µM
same,GI50,[34],2.01 µM
same,TGI,[34],5.96 µM
same,GI50,[35],2.85 µM
same,TGI,[35],25.1 µM
same,GI50,[36],25.3 µM
same,TGI,[36],> 100 µM
same,GI50,[37],4.87 µM
same,TGI,[37],> 100 µM
same,GI50,[38],5.61 µM
same,TGI,[38],> 100 µM
same,GI50,[39],3.93 µM
same,TGI,[39],> 100 µM
same,GI50,[40],8.63 µM
same,TGI,[40],98.9 µM
same,GI50,[41],5.9 µM
same,TGI,[41],53.7 µM
same,GI50,[42],3.33 µM
same,TGI,[42],10.8 µM
same,GI50,[43],21.8 µM
same,TGI,[43],61.5 µM
same,GI50,[44],21.1 µM
same,TGI,[44],72.8 µM
same,GI50,[45],2.73 µM
same,TGI,[45],12.5 µM
same,GI50,[46],28.5 µM
same,TGI,[46],> 100 µM
same,GI50,[47],5.42 µM
same,TGI,[47],20 µM
same,GI50,[48],4.86 µM
same,TGI,[48],49.2 µM
same,GI50,[49],17 µM
same,TGI,[49],> 100 µM
same,GI50,[50],0.488 µM
same,TGI,[50],> 100 µM
same,GI50,[51],2.63 µM
same,TGI,[51],> 100 µM
same,GI50,[52],8.32 µM
same,TGI,[52],> 100 µM
same,GI50,[53],33.2 µM
same,TGI,[53],85.9 µM
same,GI50,[54],6.07 µM
same,TGI,[54],79.6 µM
same,GI50,[55],5.71 µM
same,TGI,[55],> 100 µM
same,GI50,[56],4.33 µM
same,TGI,[56],17.1 µM
same,GI50,[57],18.8 µM
same,TGI,[57],> 100 µM
O=C(O)c1ccc2nc(-c3ccc(OCCCCCOc4ccc(-c5nc6ccc(C(=O)O)cc6[nH]5)cc4)cc3)[nH]c2c1,GI50,[1],> 100 µM
same,TGI,[1],> 100 µM
same,GI50,[2],> 100 µM
same,TGI,[2],> 100 µM
same,GI50,[4],> 100 µM
same,TGI,[4],> 100 µM
same,GI50,[5],> 100 µM
same,TGI,[5],> 100 µM
same,GI50,[6],> 100 µM
same,TGI,[6],> 100 µM
same,GI50,[7],18.8 µM
same,TGI,[7],44.2 µM
same,GI50,[8],> 100 µM
same,TGI,[8],> 100 µM
same,GI50,[9],> 100 µM
same,TGI,[9],> 100 µM
same,GI50,[10],> 100 µM
same,TGI,[10],> 100 µM
same,GI50,[11],> 100 µM
same,TGI,[11],> 100 µM
same,GI50,[12],> 100 µM
same,TGI,[12],> 100 µM
same,GI50,[13],> 100 µM
same,TGI,[13],> 100 µM
same,GI50,[14],> 100 µM
same,TGI,[14],> 100 µM
same,GI50,[15],> 100 µM
same,TGI,[15],> 100 µM
same,GI50,[17],> 100 µM
same,TGI,[17],> 100 µM
same,GI50,[18],> 100 µM
same,TGI,[18],> 100 µM
same,GI50,[20],22.3 µM
same,TGI,[20],> 100 µM
same,GI50,[21],> 100 µM
same,TGI,[21],> 100 µM
same,GI50,[22],> 100 µM
same,TGI,[22],> 100 µM
same,GI50,[23],> 100 µM
same,TGI,[23],> 100 µM
same,GI50,[24],> 100 µM
same,TGI,[24],> 100 µM
same,GI50,[25],> 100 µM
same,TGI,[25],> 100 µM
same,GI50,[26],> 100 µM
same,TGI,[26],> 100 µM
same,GI50,[27],> 100 µM
same,TGI,[27],> 100 µM
same,GI50,[28],29.7 µM
same,TGI,[28],> 100 µM
same,GI50,[29],> 100 µM
same,TGI,[29],> 100 µM
same,GI50,[30],> 100 µM
same,TGI,[30],> 100 µM
same,GI50,[31],> 100 µM
same,TGI,[31],> 100 µM
same,GI50,[32],> 100 µM
same,TGI,[32],> 100 µM
same,GI50,[33],> 100 µM
same,TGI,[33],> 100 µM
same,GI50,[34],> 100 µM
same,TGI,[34],> 100 µM
same,GI50,[35],> 100 µM
same,TGI,[35],> 100 µM
same,GI50,[36],> 100 µM
same,TGI,[36],> 100 µM
same,GI50,[37],> 100 µM
same,TGI,[37],> 100 µM
same,GI50,[38],> 100 µM
same,TGI,[38],> 100 µM
same,GI50,[40],> 100 µM
same,TGI,[40],> 100 µM
same,GI50,[41],> 100 µM
same,TGI,[41],> 100 µM
same,GI50,[42],> 100 µM
same,TGI,[42],> 100 µM
same,GI50,[43],> 100 µM
same,TGI,[43],> 100 µM
same,GI50,[44],> 100 µM
same,TGI,[44],> 100 µM
same,GI50,[45],> 100 µM
same,TGI,[45],> 100 µM
same,GI50,[46],> 100 µM
same,TGI,[46],> 100 µM
same,GI50,[47],> 100 µM
same,TGI,[47],> 100 µM
same,GI50,[48],> 100 µM
same,TGI,[48],> 100 µM
same,GI50,[49],> 100 µM
same,TGI,[49],> 100 µM
same,GI50,[50],22.3 µM
same,TGI,[50],48.6 µM
same,GI50,[51],> 100 µM
same,TGI,[51],> 100 µM
same,GI50,[52],> 100 µM
same,TGI,[52],> 100 µM
same,GI50,[53],> 100 µM
same,TGI,[53],> 100 µM
same,GI50,[54],> 100 µM
same,TGI,[54],> 100 µM
same,GI50,[55],> 100 µM
same,TGI,[55],> 100 µM
same,GI50,[56],> 100 µM
same,TGI,[56],> 100 µM
same,GI50,[57],> 100 µM
same,TGI,[57],> 100 µM
COc1ccc(CN(Cc2ccc(OC)cc2)C(=O)CC2(O)CCc3ccccc3C2)cc1 (stereo unspecified),TGI,[1],> 100 µM
same,TGI,[2],> 100 µM
same,TGI,[3],> 100 µM
same,TGI,[4],> 100 µM
same,TGI,[5],> 100 µM
same,TGI,[6],> 100 µM
same,TGI,[7],> 100 µM
same,TGI,[8],57.4 µM
same,TGI,[9],> 100 µM
same,TGI,[10],> 100 µM
same,TGI,[11],> 100 µM
same,TGI,[12],> 100 µM
same,TGI,[13],> 100 µM
same,TGI,[14],80.1 µM
same,TGI,[15],> 100 µM
same,TGI,[16],> 100 µM
same,TGI,[17],> 100 µM
same,TGI,[18],> 100 µM
same,TGI,[19],> 100 µM
same,TGI,[20],> 100 µM
same,TGI,[21],> 100 µM
same,TGI,[22],> 100 µM
same,TGI,[23],> 100 µM
same,TGI,[24],> 100 µM
same,TGI,[25],> 100 µM
same,TGI,[26],> 100 µM
same,TGI,[27],> 100 µM
same,TGI,[28],56 µM
same,TGI,[29],> 100 µM
same,TGI,[30],> 100 µM
same,TGI,[31],> 100 µM
same,TGI,[32],> 100 µM
same,TGI,[33],> 100 µM
same,TGI,[34],> 100 µM
same,TGI,[35],> 100 µM
same,TGI,[36],> 100 µM
same,TGI,[37],> 100 µM
same,TGI,[38],> 100 µM
same,TGI,[39],> 100 µM
same,TGI,[41],> 100 µM
same,TGI,[42],> 100 µM
same,TGI,[43],> 100 µM
same,TGI,[44],> 100 µM
same,TGI,[45],> 100 µM
same,TGI,[46],> 100 µM
same,TGI,[47],> 100 µM
same,TGI,[48],> 100 µM
same,TGI,[49],> 100 µM
same,TGI,[50],> 100 µM
same,TGI,[51],> 100 µM
same,TGI,[52],> 100 µM
same,TGI,[53],> 100 µM
same,TGI,[54],> 100 µM
same,TGI,[55],> 100 µM
same,TGI,[56],> 100 µM
same,TGI,[57],> 100 µM
